{
  "source": "patent EP4652842A1",
  "about": "“BIOPESTICIDE COMPOSITION, PROCEDURE OF OBTAIN THEREOF, AND METHOD FOR CONTROLLING AND TREATING BROAD SPECTRUM OF PESTS, DISEASES AND WEEDS IN PLANTS” (priority 2024, dated 2025)",
  "type_in_all_cases": "in vivo",
  "key": {"Myzus persicae [1]": {"tested_on": "Myzus persicae", "experimental": "(§1) The objective of this bioassay is to evaluate the effect of test items on the mortality of adult insects and mites in a short/medium-term (0-24 hours) by topical application. Tests were conducted in plastic net bottles. A total of 10 replicates for each treatment (tests items and negative control) were used in each experiment and temporarily replicated 3 times along the week. (Figure 12)\n(§2) Numbers of live and dead adult insects and mites were counted at 24 h post-treatment. Adult insects and mites were considered dead if no movement was apparent after probing with the tip of a fine brush under stereoscopic magnifying glass. Mortality percentage was calculated in treatment and control groups. If the mortality in negative control is above 20% the test was discarded.\n(§3) Means of %M were compared using a one-way analysis of variance (ANOVA, p<0.05) and LSD-test as a post hoc test to verify significant differences between single treatments using Statgraphics Centurion XVII software. When nonnormality in the data was detected, an additional Kruskal-Wallis test was conducted, and Box-and-Whisker Plot (Median Notch) was presented.\n(§4) The different compositions were tested by trials that were carried out on different relevant insect pests and acari including: Tuta absoluta, Bemisia tabaci, Myzus persicae, Frankliniella occidentalis and Tetranychus urticae. The bioassay type used was contact mortality (Leaf Disc Method) described in the example 4.\n(§5) The main treatments included in the comparison of efficacy are: Group A: Individual solvents: Benzyl alcohol, ethanol, isopropanol, and water were applied directly (purity as in the label) diluted at 0.3% (3cc/L) in water without formulation. Group B: Vegetable matrix extracts were extracted with different solvents such as benzyl alcohol, ethanol, isopropanol, and water."}, "[2]": {"tested_on": "Frankliniella occidentalis", "experimental": "as §1, §2, §3, §4, §5"}, "Tetranychus urticae [3]": {"tested_on": "Tetranychus urticae", "experimental": "as §1, §2, §3, §4, §5"}, "Bemisia tabaci [4]": {"tested_on": "Bemisia tabaci", "experimental": "as §1, §2, §3, §4, §5"}, "Tuta absoluta [5]": {"tested_on": "Tuta absoluta", "experimental": "as §1, §2, §3, §4, §5"}, "Tuta absoluta [6]": {"tested_on": "Tuta absoluta", "experiment": "Antifeedant effects: feeding reduction"}, "[7]": {"tested_on": "Frankliniella occidentalis", "experiment": "Antifeedant effects: feeding reduction", "details": "F. occidentalis"}, "Tetranychus urticae [8]": {"tested_on": "Tetranychus urticae", "experiment": "Antifeedant effects: settling inhibition and oviposition inhibition", "details": "T. urticae", "experimental": "The concept of antifeedant as a substance that acts on insect behaviour involves feeding reduction (FR), settling inhibition (SI) and oviposition Inhibition (IO). In some cases, settling inhibition is considered as indirect repellent effect. […] It is based on the preference of target adults for treated and non-treated host plants located in the same entomological cages (in plant assays). The experiments were conducted in bugdorm®-type net cages (Figure 13). Four similar host plants (two leaf stage) were transferred to a same pot (Figure 14). Two of the plants were sprayed with biopesticide compositions and the others with the control and dried for 30 minutes. Target adults were released at the site that was equidistant from the two plants. A total of 5 cages for each treatment (four plants each) and control were used in each experiment and replicated 3 times in different days. […] After 24 hours, the number of settled adults in treated and non-treated plants and the number of laid eggs were recorded on the upper and underside of each leaf. Number of adults and eggs were counted under a stereomicroscope. […] T= Settling of treated plants; C= Setting of control plants. […] Means of %Sl and %IO were analysed for significance by the non-parametric Wilcoxon signed-rank test (p < 0.05)."}, "Myzus persicae [9]": {"tested_on": "Myzus persicae", "experiment": "Antifeedant effects: settling inhibition", "experimental": "(§6) The concept of antifeedant as a substance that acts on insect behaviour involves feeding reduction (FR), settling inhibition (SI) and oviposition Inhibition (IO). In some cases, settling inhibition is considered as indirect repellent effect. […] It is based on the preference of target adults for treated and non-treated host plants located in the same entomological cages (in plant assays). The experiments were conducted in bugdorm®-type net cages (Figure 13). Four similar host plants (two leaf stage) were transferred to a same pot (Figure 14). Two of the plants were sprayed with biopesticide compositions and the others with the control and dried for 30 minutes. Target adults were released at the site that was equidistant from the two plants. A total of 5 cages for each treatment (four plants each) and control were used in each experiment and replicated 3 times in different days. […] After 24 hours, the number of settled adults in treated and non-treated plants and the number of laid eggs were recorded on the upper and underside of each leaf. Number of adults and eggs were counted under a stereomicroscope. […] T= Settling of treated plants; C= Setting of control plants. Means of %Sl and %IO were analysed for significance by the non-parametric Wilcoxon signed-rank test (p < 0.05)."}, "Bemisia tabaci [10]": {"tested_on": "Bemisia tabaci", "experiment": "Antifeedant effects: settling inhibition", "experimental": "as §6"}, "[11]": {"details": "%FR feeding reduction index, at sublethal concentration 0.014 %"}, "[12]": {"details": "antifeedant/repellent, concentration under the lethal EC50"}, "[13]": {"details": "%SI settling inhibition index, at sublethal concentration 0.021 %"}},
  "note": "Read-outs that look alike come from different tables or passages of the source.",
  "data": [
    {"smiles": "CC(C)=CCCC(C)=CC=O", "note": "[Citral]", "values": [
      {"measurement": "%M", "setting": "Myzus persicae [1]; in vivo", "result": "30.2 ±5.8", "unit": "%"},
      {"measurement": "%M", "setting": "[2]; in vivo", "result": "27.8 ± 3.6", "unit": "%"},
      {"measurement": "%M", "setting": "Tetranychus urticae [3]; in vivo", "result": "16.9 ± 3.9", "unit": "%"},
      {"measurement": "%M", "setting": "Bemisia tabaci [4]; in vivo", "result": "20.7 ±7.3", "unit": "%"},
      {"measurement": "%M", "setting": "Tuta absoluta [5]; in vivo", "result": "0.0 ±0.0", "unit": "%"}
    ]},
    {"smiles": "COC(=O)C=Cc1ccccc1", "note": "[Methyl cinnamate]", "values": [
      {"measurement": "%SI/ %FR", "setting": "Tuta absoluta [6]; [11]", "result": "30.4 ± 5.7", "unit": "%"},
      {"measurement": "Sublethal concentration (%)", "setting": "Tuta absoluta [6]; [12]", "result": 0.014, "unit": "%"},
      {"measurement": "%SI/ %FR", "setting": "[7]; [11]", "result": "22.2 ± 2.1", "unit": "%"},
      {"measurement": "Sublethal concentration (%)", "setting": "[7]; [12]", "result": 0.014, "unit": "%"},
      {"measurement": "%SI/ %FR", "setting": "Tetranychus urticae [8]; [13]", "result": "20.0 ± 4.6", "unit": "%"},
      {"measurement": "Sublethal concentration (%)", "setting": "Tetranychus urticae [8]; [12]", "result": 0.021, "unit": "%"},
      {"measurement": "%SI/ %FR", "setting": "Myzus persicae [9]; %SI settling inhibition index, at sublethal concentration 0.014 %", "result": "17.9 ± 6.7", "unit": "%"},
      {"measurement": "Sublethal concentration (%)", "setting": "Myzus persicae [9]; [12]", "result": 0.014, "unit": "%"},
      {"measurement": "%SI/ %FR", "setting": "Bemisia tabaci [10]; [13]", "result": "14.4 ± 3.6", "unit": "%"},
      {"measurement": "Sublethal concentration (%)", "setting": "Bemisia tabaci [10]; [12]", "result": 0.021, "unit": "%"},
      {"measurement": "%M", "setting": "Myzus persicae [1]; Myzus persicae, at sublethal concentration 0.014 %, Abbott's corrected", "result": "17.1 ± 4.7", "unit": "%"},
      {"measurement": "Sublethal concentration (%)", "setting": "Myzus persicae [1]; Myzus persicae, contact mortality, concentration under the lethal EC50", "result": 0.014, "unit": "%"},
      {"measurement": "%M", "setting": "[2]; Frankliniella occidentalis, at sublethal concentration 0.021 %, Abbott's corrected", "result": "25.6 ± 4.6", "unit": "%"},
      {"measurement": "Sublethal concentration (%)", "setting": "[2]; Frankliniella occidentalis, contact mortality, concentration under the lethal EC50", "result": 0.021, "unit": "%"},
      {"measurement": "%M", "setting": "Tetranychus urticae [3]; Tetranychus urticae, at sublethal concentration 0.021 %, Abbott's corrected", "result": "24.7 ± 6.9", "unit": "%"},
      {"measurement": "Sublethal concentration (%)", "setting": "Tetranychus urticae [3]; Tetranychus urticae, contact mortality, concentration under the lethal EC50", "result": 0.021, "unit": "%"},
      {"measurement": "%M", "setting": "Bemisia tabaci [4]; Bemisia tabaci, at sublethal concentration 0.014 %, Abbott's corrected", "result": "14.5 ± 9.8", "unit": "%"},
      {"measurement": "Sublethal concentration (%)", "setting": "Bemisia tabaci [4]; Bemisia tabaci, contact mortality, concentration under the lethal EC50", "result": 0.014, "unit": "%"},
      {"measurement": "%M", "setting": "Tuta absoluta [5]; Tuta absoluta, at sublethal concentration 0.021 %, Abbott's corrected", "result": "17.5 ± 5.9", "unit": "%"},
      {"measurement": "Sublethal concentration (%)", "setting": "Tuta absoluta [5]; Tuta absoluta, contact mortality, concentration under the lethal EC50", "result": 0.021, "unit": "%"}
    ]}
  ]
}
